# Measured values from paper PMC12446476 (Nature Communications, 2025).
# Where two headings read alike, the source gives them in different places.
# System: N. gonorrhoeae
# Assay: MIC determination, agar dilution (CLSI)
# Type: cell-based, Neisseria gonorrhoeae
# Conditions: for MIC: Neisseria gonorrhoeae
# Summary of the method: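 For N. gonorrhoeae, WHO 2024 reference strains served as quality control, only whole doubling-dilution MICs were reported, and isolates were classified by EUCAST v14.0 breakpoints or ECOFF. Time-kill assays followed CLSI in Columbia broth with 1% IsoVitaleX, and viable counts came from plating serial dilutions on GC agar with IsoVitaleX.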
compound,measurement,setting,value
Cc1c(CN(C)C(=O)/C=C/c2cnc3c(c2)N[C@H](C)[C@H](O)C(=O)N3)oc2ccccc12 [Debio 1453],MIC range,100 contemporary clinical N. gonorrhoeae isolates,0.008 to 0.125 µg/mL
same,MIC range,2024 WHO N. gonorrhoeae reference strains,0.03 to 0.125 µg/mL
same,increase in MIC,6804 clones with FabI L257F vs parent,4 fold
same,MIC,"AR Bank0179-15 (AZM-R), mode of multiple measures, read-out: MIC",0.03 µg/mL
same,MIC,"AR Bank0181-17 (AZM-R), mode of multiple measures, read-out: MIC",0.125 µg/mL
same,MIC,"ATCC700825, read-out: MIC relevant for mutant selection assay, ATCC 700825",0.016 µg/mL
same,MIC,"WHO F, agar dilution, read-out: MIC",0.03 µg/mL
same,MIC,"WHO H, agar dilution, read-out: MIC",0.06 µg/mL
same,MIC,"WHO K, agar dilution, read-out: MIC",0.06 µg/mL
same,MIC,"WHO L, agar dilution, read-out: MIC",0.03 µg/mL
same,MIC,"WHO M, agar dilution, read-out: MIC",0.06 µg/mL
same,MIC,"WHO O, agar dilution, read-out: MIC",0.06 µg/mL
same,MIC,"WHO P, agar dilution, read-out: MIC",0.125 µg/mL
same,MIC,"WHO Q, agar dilution, read-out: MIC",0.06 µg/mL
same,MIC,"WHO R, agar dilution, read-out: MIC",0.06 µg/mL
same,MIC,"WHO S2, agar dilution, read-out: MIC",0.06 µg/mL
same,MIC,"WHO U, agar dilution, read-out: MIC",0.125 µg/mL
same,MIC,"WHO V, agar dilution, read-out: MIC",0.06 µg/mL
same,MIC,"WHO X-07 (CIP-R, CRO-R), mode of multiple measures, read-out: MIC",0.125 µg/mL
same,MIC,"WHO X, agar dilution, read-out: MIC",0.06 µg/mL
same,MIC,"WHO Y, agar dilution, read-out: MIC",0.06 µg/mL
same,MIC,"WHO Z, agar dilution, read-out: MIC",0.06 µg/mL
same,MIC,"clinical N. gonorrhoeae isolate 1, Sweden 2023, read-out: Minimum inhibitory concentration",0.064 µg/mL
same,MIC,"clinical N. gonorrhoeae isolate 2, Sweden 2023, read-out: Minimum inhibitory concentration",0.032 µg/mL
same,MIC,"clinical N. gonorrhoeae isolate 3, Sweden 2023, read-out: Minimum inhibitory concentration",0.064 µg/mL
same,MIC,"clinical N. gonorrhoeae isolate 4, Sweden 2023, read-out: Minimum inhibitory concentration",0.032 µg/mL
same,MIC,"clinical N. gonorrhoeae isolate 5, Sweden 2023, read-out: Minimum inhibitory concentration",0.064 µg/mL
same,MIC,"clinical N. gonorrhoeae isolate 6, Sweden 2023, read-out: Minimum inhibitory concentration",0.032 µg/mL
same,MIC,"clinical N. gonorrhoeae isolate 7, Sweden 2023, read-out: Minimum inhibitory concentration",0.064 µg/mL
same,MIC,"clinical N. gonorrhoeae isolate 8, Sweden 2023, read-out: Minimum inhibitory concentration",0.064 µg/mL
same,MIC,"clinical N. gonorrhoeae isolate 9, Sweden 2023, read-out: Minimum inhibitory concentration",0.064 µg/mL
same,MIC,"clinical N. gonorrhoeae isolate 10, Sweden 2023, read-out: Minimum inhibitory concentration",0.064 µg/mL
same,MIC,"clinical N. gonorrhoeae isolate 11, Sweden 2023, read-out: Minimum inhibitory concentration",0.064 µg/mL
same,MIC,"clinical N. gonorrhoeae isolate 12, Sweden 2023, read-out: Minimum inhibitory concentration",0.032 µg/mL
same,MIC,"clinical N. gonorrhoeae isolate 13, Sweden 2023, read-out: Minimum inhibitory concentration",0.064 µg/mL
same,MIC,"clinical N. gonorrhoeae isolate 14, Sweden 2023, read-out: Minimum inhibitory concentration",0.032 µg/mL
same,MIC,"clinical N. gonorrhoeae isolate 15, Sweden 2023, read-out: Minimum inhibitory concentration",0.064 µg/mL
same,MIC,"clinical N. gonorrhoeae isolate 16, Sweden 2023, read-out: Minimum inhibitory concentration",0.064 µg/mL
same,MIC,"clinical N. gonorrhoeae isolate 17, Sweden 2023, read-out: Minimum inhibitory concentration",0.064 µg/mL
same,MIC,"clinical N. gonorrhoeae isolate 18, Sweden 2023, read-out: Minimum inhibitory concentration",0.064 µg/mL
same,MIC,"clinical N. gonorrhoeae isolate 19, Sweden 2023, read-out: Minimum inhibitory concentration",0.064 µg/mL
same,MIC,"clinical N. gonorrhoeae isolate 20, Sweden 2023, read-out: Minimum inhibitory concentration",0.064 µg/mL
same,MIC,"clinical N. gonorrhoeae isolate 21, Sweden 2023, read-out: Minimum inhibitory concentration",0.064 µg/mL
same,MIC,"clinical N. gonorrhoeae isolate 22, Sweden 2023, read-out: Minimum inhibitory concentration",0.125 µg/mL
same,MIC,"clinical N. gonorrhoeae isolate 23, Sweden 2023, read-out: Minimum inhibitory concentration",0.064 µg/mL
same,MIC,"clinical N. gonorrhoeae isolate 24, Sweden 2023, read-out: Minimum inhibitory concentration",0.125 µg/mL
same,MIC,"clinical N. gonorrhoeae isolate 25, Sweden 2023, read-out: Minimum inhibitory concentration",0.064 µg/mL
same,MIC,"clinical N. gonorrhoeae isolate 26, Sweden 2023, read-out: Minimum inhibitory concentration",0.032 µg/mL
same,MIC,"clinical N. gonorrhoeae isolate 27, Sweden 2023, read-out: Minimum inhibitory concentration",0.064 µg/mL
same,MIC,"clinical N. gonorrhoeae isolate 28, Sweden 2023, read-out: Minimum inhibitory concentration",0.064 µg/mL
same,MIC,"clinical N. gonorrhoeae isolate 29, Sweden 2023, read-out: Minimum inhibitory concentration",0.064 µg/mL
same,MIC,"clinical N. gonorrhoeae isolate 30, Sweden 2023, read-out: Minimum inhibitory concentration",0.125 µg/mL
same,MIC,"clinical N. gonorrhoeae isolate 31, Sweden 2023, read-out: Minimum inhibitory concentration",0.064 µg/mL
same,MIC,"clinical N. gonorrhoeae isolate 32, Sweden 2023, read-out: Minimum inhibitory concentration",0.016 µg/mL
same,MIC,"clinical N. gonorrhoeae isolate 33, Sweden 2023, read-out: Minimum inhibitory concentration",0.064 µg/mL
same,MIC,"clinical N. gonorrhoeae isolate 34, Sweden 2023, read-out: Minimum inhibitory concentration",0.064 µg/mL
same,MIC,"clinical N. gonorrhoeae isolate 35, Sweden 2023, read-out: Minimum inhibitory concentration",0.032 µg/mL
same,MIC,"clinical N. gonorrhoeae isolate 36, Sweden 2023, read-out: Minimum inhibitory concentration",0.016 µg/mL
same,MIC,"clinical N. gonorrhoeae isolate 37, Sweden 2023, read-out: Minimum inhibitory concentration",0.064 µg/mL
same,MIC,"clinical N. gonorrhoeae isolate 38, Sweden 2023, read-out: Minimum inhibitory concentration",0.064 µg/mL
same,MIC,"clinical N. gonorrhoeae isolate 39, Sweden 2023, read-out: Minimum inhibitory concentration",0.008 µg/mL
same,MIC,"clinical N. gonorrhoeae isolate 40, Sweden 2023, read-out: Minimum inhibitory concentration",0.064 µg/mL
same,MIC,"clinical N. gonorrhoeae isolate 41, Sweden 2023, read-out: Minimum inhibitory concentration",0.125 µg/mL
same,MIC,"clinical N. gonorrhoeae isolate 42, Sweden 2023, read-out: Minimum inhibitory concentration",0.032 µg/mL
same,MIC,"clinical N. gonorrhoeae isolate 43, Sweden 2023, read-out: Minimum inhibitory concentration",0.064 µg/mL
same,MIC,"clinical N. gonorrhoeae isolate 44, Sweden 2023, read-out: Minimum inhibitory concentration",0.032 µg/mL
same,MIC,"clinical N. gonorrhoeae isolate 45, Sweden 2023, read-out: Minimum inhibitory concentration",0.032 µg/mL
same,MIC,"clinical N. gonorrhoeae isolate 46, Sweden 2023, read-out: Minimum inhibitory concentration",0.032 µg/mL
same,MIC,"clinical N. gonorrhoeae isolate 47, Sweden 2023, read-out: Minimum inhibitory concentration",0.064 µg/mL
same,MIC,"clinical N. gonorrhoeae isolate 48, Sweden 2023, read-out: Minimum inhibitory concentration",0.016 µg/mL
same,MIC,"clinical N. gonorrhoeae isolate 49, Sweden 2023, read-out: Minimum inhibitory concentration",0.032 µg/mL
same,MIC,"clinical N. gonorrhoeae isolate 50, Sweden 2023, read-out: Minimum inhibitory concentration",0.064 µg/mL
same,MIC,"clinical N. gonorrhoeae isolate 51, Sweden 2023, read-out: Minimum inhibitory concentration",0.016 µg/mL
same,MIC,"clinical N. gonorrhoeae isolate 52, Sweden 2023, read-out: Minimum inhibitory concentration",0.125 µg/mL
same,MIC,"clinical N. gonorrhoeae isolate 53, Sweden 2023, read-out: Minimum inhibitory concentration",0.064 µg/mL
same,MIC,"clinical N. gonorrhoeae isolate 54, Sweden 2023, read-out: Minimum inhibitory concentration",0.064 µg/mL
same,MIC,"clinical N. gonorrhoeae isolate 55, Sweden 2023, read-out: Minimum inhibitory concentration",0.064 µg/mL
same,MIC,"clinical N. gonorrhoeae isolate 56, Sweden 2023, read-out: Minimum inhibitory concentration",0.008 µg/mL
same,MIC,"clinical N. gonorrhoeae isolate 57, Sweden 2023, read-out: Minimum inhibitory concentration",0.032 µg/mL
same,MIC,"clinical N. gonorrhoeae isolate 58, Sweden 2023, read-out: Minimum inhibitory concentration",0.064 µg/mL
same,MIC,"clinical N. gonorrhoeae isolate 59, Sweden 2023, read-out: Minimum inhibitory concentration",0.064 µg/mL
same,MIC,"clinical N. gonorrhoeae isolate 60, Sweden 2023, read-out: Minimum inhibitory concentration",0.064 µg/mL
same,MIC,"clinical N. gonorrhoeae isolate 61, Sweden 2023, read-out: Minimum inhibitory concentration",0.064 µg/mL
same,MIC,"clinical N. gonorrhoeae isolate 62, Sweden 2023, read-out: Minimum inhibitory concentration",0.016 µg/mL
same,MIC,"clinical N. gonorrhoeae isolate 63, Sweden 2023, read-out: Minimum inhibitory concentration",0.032 µg/mL
same,MIC,"clinical N. gonorrhoeae isolate 64, Sweden 2023, read-out: Minimum inhibitory concentration",0.008 µg/mL
same,MIC,"clinical N. gonorrhoeae isolate 65, Sweden 2023, read-out: Minimum inhibitory concentration",0.064 µg/mL
same,MIC,"clinical N. gonorrhoeae isolate 66, Sweden 2023, read-out: Minimum inhibitory concentration",0.032 µg/mL
same,MIC,"clinical N. gonorrhoeae isolate 67, Sweden 2023, read-out: Minimum inhibitory concentration",0.032 µg/mL
same,MIC,"clinical N. gonorrhoeae isolate 68, Sweden 2023, read-out: Minimum inhibitory concentration",0.064 µg/mL
same,MIC,"clinical N. gonorrhoeae isolate 69, Sweden 2023, read-out: Minimum inhibitory concentration",0.064 µg/mL
same,MIC,"clinical N. gonorrhoeae isolate 70, Sweden 2023, read-out: Minimum inhibitory concentration",0.064 µg/mL
